Tests used:
[1] = target: Serine/threonine-protein kinase 38-like (Homo sapiens) (UniProt Q9Y2H1); test: Inhibition of NDR2 (unknown origin) assessed as residual activity at 1000 nM by KINOMEscan analysis relative to control
[2] = target: Cyclin-dependent kinase 11B (Homo sapiens) (UniProt P21127); test: Inhibition of CDK11 (unknown origin) assessed as residual activity at 1000 nM by KINOMEscan analysis relative to control
[3] = target: Ephrin type-A receptor 7 (Homo sapiens) (UniProt Q15375); test: Inhibition of EPHA7 (unknown origin) assessed as residual activity at 1000 nM by KINOMEscan analysis relative to control
Chain of Ephrin type-A receptor 7 (Homo sapiens) (Q15375 28-998 limits assumed): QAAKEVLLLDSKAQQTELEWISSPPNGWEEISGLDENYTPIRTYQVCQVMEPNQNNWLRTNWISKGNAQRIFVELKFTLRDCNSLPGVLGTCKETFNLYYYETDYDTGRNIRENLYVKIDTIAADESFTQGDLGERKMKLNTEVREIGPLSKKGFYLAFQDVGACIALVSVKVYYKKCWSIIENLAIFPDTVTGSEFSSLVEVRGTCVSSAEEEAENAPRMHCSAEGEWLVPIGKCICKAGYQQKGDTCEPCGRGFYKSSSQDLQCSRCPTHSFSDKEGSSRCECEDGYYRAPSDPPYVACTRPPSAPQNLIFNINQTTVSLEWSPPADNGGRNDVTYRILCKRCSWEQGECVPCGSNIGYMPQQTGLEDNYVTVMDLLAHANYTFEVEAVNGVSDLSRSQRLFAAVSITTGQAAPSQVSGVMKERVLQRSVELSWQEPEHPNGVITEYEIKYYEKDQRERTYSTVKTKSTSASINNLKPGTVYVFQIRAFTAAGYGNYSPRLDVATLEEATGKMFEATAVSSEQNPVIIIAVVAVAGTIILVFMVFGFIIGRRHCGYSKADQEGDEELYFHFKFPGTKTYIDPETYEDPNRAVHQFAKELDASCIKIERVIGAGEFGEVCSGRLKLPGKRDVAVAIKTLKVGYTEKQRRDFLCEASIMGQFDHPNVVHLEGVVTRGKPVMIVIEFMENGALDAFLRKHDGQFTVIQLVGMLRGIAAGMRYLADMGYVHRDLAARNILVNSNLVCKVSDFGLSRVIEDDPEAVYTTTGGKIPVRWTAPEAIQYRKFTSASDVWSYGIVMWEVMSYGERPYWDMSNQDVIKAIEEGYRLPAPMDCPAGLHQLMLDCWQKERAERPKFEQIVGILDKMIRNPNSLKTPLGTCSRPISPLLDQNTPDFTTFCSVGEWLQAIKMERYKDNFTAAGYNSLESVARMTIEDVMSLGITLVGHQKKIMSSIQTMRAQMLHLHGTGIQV

[4] = target: Proto-oncogene tyrosine-protein kinase Src (Homo sapiens) (UniProt P12931); test: Inhibition of SRC (unknown origin) assessed as residual activity at 1000 nM by KINOMEscan analysis relative to control
[5] = target: Mitogen-activated protein kinase 14 (Homo sapiens) (UniProt Q16539); test: Inhibition of p38-alpha (unknown origin) assessed as residual activity at 1000 nM by KINOMEscan analysis relative to control
[6] = target: Proto-oncogene tyrosine-protein kinase receptor Ret (Homo sapiens) (UniProt P07949); test: Inhibition of RET (unknown origin) assessed as residual activity at 1000 nM by KINOMEscan analysis relative to control
Chain of Proto-oncogene tyrosine-protein kinase receptor Ret (Homo sapiens) (P07949 whole entry): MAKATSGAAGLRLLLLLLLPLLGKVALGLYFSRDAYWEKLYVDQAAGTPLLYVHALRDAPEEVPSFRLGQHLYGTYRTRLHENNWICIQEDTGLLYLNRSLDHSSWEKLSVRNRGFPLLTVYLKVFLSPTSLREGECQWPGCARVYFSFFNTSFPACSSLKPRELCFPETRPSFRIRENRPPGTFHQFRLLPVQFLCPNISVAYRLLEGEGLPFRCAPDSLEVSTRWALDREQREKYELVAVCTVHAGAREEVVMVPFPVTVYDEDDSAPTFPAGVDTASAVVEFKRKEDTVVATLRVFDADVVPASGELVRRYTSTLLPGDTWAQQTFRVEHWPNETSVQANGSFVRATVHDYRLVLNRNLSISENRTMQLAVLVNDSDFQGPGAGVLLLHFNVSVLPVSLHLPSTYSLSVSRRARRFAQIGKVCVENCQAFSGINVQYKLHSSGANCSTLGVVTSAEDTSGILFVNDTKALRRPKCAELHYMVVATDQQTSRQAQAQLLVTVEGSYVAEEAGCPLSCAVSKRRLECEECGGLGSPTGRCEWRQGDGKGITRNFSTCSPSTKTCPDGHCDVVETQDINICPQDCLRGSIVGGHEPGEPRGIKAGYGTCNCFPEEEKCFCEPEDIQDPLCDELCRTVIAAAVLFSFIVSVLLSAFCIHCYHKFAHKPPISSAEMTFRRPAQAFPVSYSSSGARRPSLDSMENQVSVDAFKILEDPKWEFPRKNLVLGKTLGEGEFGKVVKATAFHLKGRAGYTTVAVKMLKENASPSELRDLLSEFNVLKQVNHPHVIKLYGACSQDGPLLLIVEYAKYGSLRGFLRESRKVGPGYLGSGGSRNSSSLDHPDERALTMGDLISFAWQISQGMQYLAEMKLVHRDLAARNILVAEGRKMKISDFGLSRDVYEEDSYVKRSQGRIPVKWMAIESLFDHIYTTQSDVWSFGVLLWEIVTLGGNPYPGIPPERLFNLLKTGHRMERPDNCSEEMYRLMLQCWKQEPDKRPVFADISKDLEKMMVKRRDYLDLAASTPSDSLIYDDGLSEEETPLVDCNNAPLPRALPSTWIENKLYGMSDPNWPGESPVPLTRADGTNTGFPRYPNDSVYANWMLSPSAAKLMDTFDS

[7] = test system: Tyrosine-protein kinase ABL1 (Homo sapiens), P00519 [E255K]; test: Inhibition of phosphorylated ABL1 E255K mutant (unknown origin) assessed as residual activity at 1000 nM by KINOMEscan analysis relative to control
Chain of Tyrosine-protein kinase ABL1 (Homo sapiens), P00519 [E255K] (P00519 whole entry E255K): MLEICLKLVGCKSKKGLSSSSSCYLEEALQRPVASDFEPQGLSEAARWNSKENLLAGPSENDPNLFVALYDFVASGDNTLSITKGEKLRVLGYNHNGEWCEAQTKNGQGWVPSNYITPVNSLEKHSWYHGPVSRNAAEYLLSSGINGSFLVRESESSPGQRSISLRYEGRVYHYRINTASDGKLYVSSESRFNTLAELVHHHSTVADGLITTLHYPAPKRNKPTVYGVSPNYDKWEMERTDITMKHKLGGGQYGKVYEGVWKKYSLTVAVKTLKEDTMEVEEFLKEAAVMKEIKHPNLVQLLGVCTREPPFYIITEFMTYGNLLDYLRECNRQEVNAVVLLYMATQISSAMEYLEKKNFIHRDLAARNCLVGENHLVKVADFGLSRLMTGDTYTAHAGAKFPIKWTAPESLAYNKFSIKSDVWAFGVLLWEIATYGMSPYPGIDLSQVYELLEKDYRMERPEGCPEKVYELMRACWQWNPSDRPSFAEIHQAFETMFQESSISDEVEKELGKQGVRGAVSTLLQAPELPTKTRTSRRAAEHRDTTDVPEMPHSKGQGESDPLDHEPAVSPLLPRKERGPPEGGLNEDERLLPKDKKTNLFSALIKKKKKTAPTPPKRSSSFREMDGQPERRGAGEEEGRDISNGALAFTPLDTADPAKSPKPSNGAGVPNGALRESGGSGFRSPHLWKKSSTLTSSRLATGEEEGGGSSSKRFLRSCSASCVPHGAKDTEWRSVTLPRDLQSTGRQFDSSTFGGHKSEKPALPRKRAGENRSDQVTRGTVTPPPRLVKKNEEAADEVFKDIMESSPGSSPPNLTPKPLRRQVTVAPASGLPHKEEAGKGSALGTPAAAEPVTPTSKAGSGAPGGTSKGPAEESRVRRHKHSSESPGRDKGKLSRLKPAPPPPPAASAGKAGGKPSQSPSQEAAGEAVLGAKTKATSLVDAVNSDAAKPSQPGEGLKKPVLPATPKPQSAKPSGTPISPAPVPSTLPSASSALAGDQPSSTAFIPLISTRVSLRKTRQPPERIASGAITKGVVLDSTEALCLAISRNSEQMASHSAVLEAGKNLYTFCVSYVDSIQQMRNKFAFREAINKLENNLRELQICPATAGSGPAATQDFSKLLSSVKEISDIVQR

[8] = target: T1, Testis-specific serine/threonine-protein kinase 1 (Homo sapiens) (UniProt Q9BXA7); test: Inhibition of TSSK1B (unknown origin) assessed as residual activity at 1000 nM by KINOMEscan analysis relative to control
T1 sequence (whole entry): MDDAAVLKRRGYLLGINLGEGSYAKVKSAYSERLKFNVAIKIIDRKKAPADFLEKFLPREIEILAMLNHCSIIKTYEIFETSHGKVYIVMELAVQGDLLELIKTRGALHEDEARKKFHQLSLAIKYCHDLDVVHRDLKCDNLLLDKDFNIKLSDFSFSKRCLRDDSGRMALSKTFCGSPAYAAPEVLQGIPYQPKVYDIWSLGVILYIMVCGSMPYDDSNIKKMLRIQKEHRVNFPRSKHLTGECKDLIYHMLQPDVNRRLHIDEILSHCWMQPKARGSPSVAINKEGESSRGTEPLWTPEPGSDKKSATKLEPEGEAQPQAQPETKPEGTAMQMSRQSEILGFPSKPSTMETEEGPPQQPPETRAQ

[9] = target: Epidermal growth factor receptor (Homo sapiens, UniProt P00533); test: Inhibition of EGFR (unknown origin) assessed as residual activity at 1000 nM by KINOMEscan analysis relative to control
[10] = target: Tyrosine-protein kinase FRK (Homo sapiens) (UniProt P42685); test: Inhibition of FRK (unknown origin) assessed as residual activity at 1000 nM by KINOMEscan analysis relative to control
Chain of Tyrosine-protein kinase FRK (Homo sapiens) (P42685 whole entry, canonical isoform): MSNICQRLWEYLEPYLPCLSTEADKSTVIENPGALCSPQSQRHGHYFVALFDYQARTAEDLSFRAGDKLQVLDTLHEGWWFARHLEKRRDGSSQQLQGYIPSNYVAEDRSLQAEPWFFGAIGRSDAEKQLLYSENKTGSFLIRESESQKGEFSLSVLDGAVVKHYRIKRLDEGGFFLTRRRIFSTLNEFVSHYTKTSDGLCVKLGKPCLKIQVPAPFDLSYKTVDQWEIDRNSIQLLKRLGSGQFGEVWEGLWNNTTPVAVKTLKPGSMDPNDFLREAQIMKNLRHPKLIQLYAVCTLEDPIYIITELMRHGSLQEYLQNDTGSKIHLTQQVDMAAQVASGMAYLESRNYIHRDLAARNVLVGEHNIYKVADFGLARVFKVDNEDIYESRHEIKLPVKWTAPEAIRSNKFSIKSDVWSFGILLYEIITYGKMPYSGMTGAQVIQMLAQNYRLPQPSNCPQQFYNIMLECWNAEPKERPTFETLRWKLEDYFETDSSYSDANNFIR

[11] = test system: Phosphatidylinositol 4,5-bisphosphate 3-kinase catalytic subunit alpha isoform (Homo sapiens), P42336 [I800L]; test: Inhibition of PIK3CA I800L mutant (unknown origin) assessed as residual activity at 1000 nM by KINOMEscan analysis relative to control
[12] = target: Cyclin-dependent kinase 7 (Homo sapiens) (UniProt P50613); test: Inhibition of CDK7 (unknown origin) assessed as residual activity at 1000 nM by KINOMEscan analysis relative to control
Chain of Cyclin-dependent kinase 7 (Homo sapiens) (P50613 whole entry): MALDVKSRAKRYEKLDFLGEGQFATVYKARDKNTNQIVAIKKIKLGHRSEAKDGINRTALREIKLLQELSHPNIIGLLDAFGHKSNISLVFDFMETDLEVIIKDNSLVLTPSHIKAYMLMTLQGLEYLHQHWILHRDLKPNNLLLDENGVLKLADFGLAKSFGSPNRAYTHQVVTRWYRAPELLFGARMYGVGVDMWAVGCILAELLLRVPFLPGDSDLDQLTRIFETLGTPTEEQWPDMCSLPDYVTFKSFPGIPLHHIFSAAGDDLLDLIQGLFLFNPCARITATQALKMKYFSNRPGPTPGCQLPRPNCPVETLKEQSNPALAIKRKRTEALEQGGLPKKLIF

[13] = target: T2, Serine/threonine-protein kinase haspin (Homo sapiens) (UniProt Q8TF76); test: Inhibition of HASPIN (unknown origin) assessed as residual activity at 1000 nM by KINOMEscan analysis relative to control
T2 sequence (whole entry): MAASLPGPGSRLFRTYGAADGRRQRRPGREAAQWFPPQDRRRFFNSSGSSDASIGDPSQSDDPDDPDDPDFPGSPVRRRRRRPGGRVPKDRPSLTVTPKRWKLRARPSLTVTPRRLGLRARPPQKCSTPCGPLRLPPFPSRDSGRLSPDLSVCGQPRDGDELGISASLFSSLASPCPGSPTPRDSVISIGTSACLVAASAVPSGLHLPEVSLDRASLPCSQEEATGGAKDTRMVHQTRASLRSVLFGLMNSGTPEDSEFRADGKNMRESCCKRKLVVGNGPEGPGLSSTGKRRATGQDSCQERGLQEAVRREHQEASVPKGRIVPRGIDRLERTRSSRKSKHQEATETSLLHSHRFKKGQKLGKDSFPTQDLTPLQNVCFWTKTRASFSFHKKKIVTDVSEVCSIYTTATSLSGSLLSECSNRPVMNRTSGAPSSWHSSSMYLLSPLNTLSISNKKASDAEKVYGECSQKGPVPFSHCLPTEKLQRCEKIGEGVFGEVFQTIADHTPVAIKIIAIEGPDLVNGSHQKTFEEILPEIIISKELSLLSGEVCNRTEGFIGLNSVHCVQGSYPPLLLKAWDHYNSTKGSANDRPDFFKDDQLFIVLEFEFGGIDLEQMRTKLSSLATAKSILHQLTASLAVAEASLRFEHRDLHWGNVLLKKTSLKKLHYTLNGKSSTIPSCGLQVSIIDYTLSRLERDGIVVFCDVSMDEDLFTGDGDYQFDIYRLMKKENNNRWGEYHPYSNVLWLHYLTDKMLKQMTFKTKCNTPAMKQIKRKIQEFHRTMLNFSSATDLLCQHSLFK

Homo sapiens = species: Homo sapiens; test: Inhibition of JNK1 (unknown origin) assessed as residual activity at 1000 nM by KINOMEscan analysis relative to control
[14] = target: Ribosomal protein S6 kinase beta-1 (Homo sapiens) (UniProt P23443); test: Inhibition of S6K1 (unknown origin) assessed as residual activity at 1000 nM by KINOMEscan analysis relative to control
[15] = target: Serine/threonine-protein kinase 25 (Homo sapiens) (UniProt O00506); test: Inhibition of YSK1 (unknown origin) assessed as residual activity at 1000 nM by KINOMEscan analysis relative to control

Chain of Cyclin-dependent kinase 11B (Homo sapiens) (P21127 whole entry): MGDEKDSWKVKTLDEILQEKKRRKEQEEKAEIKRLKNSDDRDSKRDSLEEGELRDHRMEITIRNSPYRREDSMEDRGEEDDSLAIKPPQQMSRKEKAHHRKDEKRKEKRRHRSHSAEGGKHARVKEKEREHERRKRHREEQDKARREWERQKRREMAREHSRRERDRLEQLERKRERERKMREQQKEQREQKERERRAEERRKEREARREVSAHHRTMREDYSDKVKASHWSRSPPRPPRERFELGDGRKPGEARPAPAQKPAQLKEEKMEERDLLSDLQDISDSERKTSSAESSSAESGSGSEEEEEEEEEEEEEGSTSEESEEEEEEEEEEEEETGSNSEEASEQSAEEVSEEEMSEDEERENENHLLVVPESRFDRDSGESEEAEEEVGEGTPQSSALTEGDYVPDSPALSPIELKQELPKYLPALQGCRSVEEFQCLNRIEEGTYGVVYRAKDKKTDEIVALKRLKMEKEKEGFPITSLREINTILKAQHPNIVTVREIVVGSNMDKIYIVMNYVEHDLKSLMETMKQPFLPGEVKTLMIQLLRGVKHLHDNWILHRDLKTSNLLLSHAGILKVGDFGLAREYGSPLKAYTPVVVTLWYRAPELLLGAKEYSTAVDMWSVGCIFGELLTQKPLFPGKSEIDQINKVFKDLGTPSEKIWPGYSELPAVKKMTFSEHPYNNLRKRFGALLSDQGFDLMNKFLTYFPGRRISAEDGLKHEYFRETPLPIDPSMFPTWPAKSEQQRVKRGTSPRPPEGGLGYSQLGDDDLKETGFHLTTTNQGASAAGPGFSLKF

Row | SMILES | Activity [1] [%] | Activity [2] [%] | Activity [3] [%] | Activity [4] [%] | Activity [5] [%] | Activity [6] [%] | Activity [7] [%] | Activity [8] [%] | Activity [9] [%] | Activity [10] [%] | Activity [11] [%] | Activity [12] [%] | Activity [13] [%] | Activity (Homo sapiens) [%] | Activity [14] [%] | Activity [15] [%]
1 | COc1cc2nc(C)nc(N[C@H](C)c3cccc(-c4cn[nH]c4)c3)c2cc1OC | 87 | 100 | 100 | 97 | 98 | 94 | 65 | 98 | 88 | 76 | 63 | 92 | 81 | 64 | 78 | 99
2 | COc1cc2ncnc(N[C@H](C)c3cccc4ccccc34)c2cc1OC | 86 | 84 | 88 | 96 | 58 | 92 | 89 | 100 | 3.2 | 94 | 96 | 87 | 99 | 100 | 91 | 100
